Assay results from PMC5252617 (Pharmaceutical research, 2012).
Read-outs that look alike come from different tables or passages of the source.

Target: T1, human apical sodium-dependent bile acid transporter (hASBT) (Homo sapiens, UniProt Q12908)
T1 sequence (Q12908 1-348): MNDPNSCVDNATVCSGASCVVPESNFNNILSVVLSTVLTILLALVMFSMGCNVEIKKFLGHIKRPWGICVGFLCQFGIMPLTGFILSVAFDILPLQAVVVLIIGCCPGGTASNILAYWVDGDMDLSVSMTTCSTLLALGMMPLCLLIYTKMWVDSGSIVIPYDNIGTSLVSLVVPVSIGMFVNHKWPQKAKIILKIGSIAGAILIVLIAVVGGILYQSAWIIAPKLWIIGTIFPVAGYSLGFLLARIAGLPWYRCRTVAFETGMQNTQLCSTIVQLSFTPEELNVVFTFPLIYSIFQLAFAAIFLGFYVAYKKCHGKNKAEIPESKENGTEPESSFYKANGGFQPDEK
Assay: time-dependent inactivation of [3H]-TCA uptake after pre-incubation, hASBT-MDCK
Type: cell-based

SMILES	KI (inactivation) (read-out: 3β-Cl-CDCA) [nM]	KI (inactivation) (read-out: 7α-Ms-CDCA) [nM]
C[C@H](CCC(=O)O)[C@H]1CC[C@H]2[C@@H]3[C@H](O)C[C@@H]4C[C@@H](Cl)CC[C@]4(C)[C@H]3CC[C@]12C [3β-Cl-CDCA, 3β-chloro-7α-hydroxy-5β-cholan-24-oic acid]	810 ± 190	
C[C@H](CCC(=O)O)[C@H]1CC[C@H]2[C@@H]3[C@H](OS(C)(=O)=O)C[C@@H]4C[C@H](O)CC[C@]4(C)[C@H]3CC[C@]12C [7α-Ms-CDCA, 3α-hydroxy-7α-mesyloxy-5β-cholan-24-oic acid]		1190 ± 60
